From US20230076733A1, “Combination Therapy” (AGENCY FOR SCIENCE, TECHNOLOGY AND RESEARCH, priority 2020, published 2023)
Values joined by “and” are separate entries in the source; they are usually repeats but may differ in a detail not shown here. Identical values can stand only once.

How the values were obtained:
Format in all cases: cell-based
EGI-1 cells = assay: soft agar colony formation assay, EGI-1 cells; conditions: for Colony count: duplicate wells
Method: (§1) The IC50 and EC50 values for each combination partner (a) and (b) with the specific cell lines are determined from the response plot. A dose-response assay for each combination partner and the combination at different concentrations based on the IC50 values of each combination partner was performed. Computed EC50-EC95 values were then generated by a software (as disclosed herein) based on the drug concentration and the respective colony growth numbers.
(§2) 6. Cell lines used and number of cells seeded per well
(§3) (1) Base Layer—0.6% Agar per 300 μL per well.
(§4) Microwave the agar for 1-2 min so that it is completely melted. Add 5.4 ml of the melted agar into 21.6 ml of pre-warmed media (All media and agar preparation is made in excess for 2.5 plates). Aliquot 300 μl of the suspension into each well, avoiding the first and last columns of the plates. Fill the first and last columns of wells with 500 μl of sterile water or phosphate buffered saline. Incubate the plates in 37° C. incubator for 45 min-1 hr to allow agar to solidify.
(§5) (2) Middle Layer— 0.3% Agar plus corresponding number of cells per well
(§6) Trypsinize the adherent cells and suspend them in 5 ml of media. Determine the number of cells in the suspension and calculate the volume of cell suspension required for seeding. Mix the agar and media together first, excluding the volume of cell suspension. Add the cell suspension last into the mixture. Mix well and aliquot 250 μl into each well containing the base layer. Incubate the plates in a 37° C. incubator for 1-1.5 hrs to allow the agar to solidify.
(§7) Prepare the required concentration of compounds based on the IC50 values of each drug.
(§8) (Pre-determine the IC50 values for each drug with the corresponding cell-line using a dose-response assay)
(§9) Row A& B: Aliquot 250 μl of diluted Drug A per well
(§10) Row C&D: Aliquot 250 μl of diluted Drug B per well
(§11) Row E& F: Aliquot 250 μl of diluted Drug A and B mixed at 1:1 ratio for each well
(§12) Assay Results Analysis Method • 1. Score the colonies after 2 to 3 weeks depending on the colony forming status for different cell line. • 2. Before scoring the colonies, add 35 μl MTT (5 mg/ml) to the wells with cells and incubate at 37° C. for 2-3 hrs depending on the intensity of colour development. • 3. Once the colonies are stained, count the total number of colonies formed using the Oxford Optronix GelCount® instrument. • 4. Average the total number of colonies obtained for each drug dose point and represent it as a fraction over the control. This represents the fraction of colony growth. […] Incorporate the fraction of inhibition and the corresponding dose values into the Chou Talalay Software available online (http://www.combosyn.com/) to obtain the combination index values. • 6. The combination index values will give an indication as to whether the combined drugs are synergistic, antagonistic or additive in the treated cells, as shown in Table 2 below.
FIG. 2 illustrates a dose-response assay plate containing EGI-1 cells (Test 1) after testing compounds at different concentrations based on the IC50 values of each compound. EGI-1 is a cell line established from cholangiocarcinoma (bile duct adenocarcinoma).

MCAS cells = assay: soft agar colony formation assay, MCAS cells; conditions: for Colony count: MCAS, duplicate wells
Method: as §1, §2, §3, §4, §5, §6, §7, §8, §9, §10, §11
as §12, with “6.” for “6. The combination index values will give an indication as to whether the combined drugs are synergistic, antagonistic or additive in the treated cells, as shown in Table 2 below.”
MCAS is a cell line established from ovarian mucinous cystadenocarcinoma (ovarian cancer).

CFPAC-1 cells = assay: soft agar colony formation assay, CFPAC-1 cells; conditions: for Colony count: duplicate wells
Method: as §1, §2, §3, §4, §5, §6, §7, §8, §9, §10, §11, §12
FIG. 8 illustrates a dose-response assay plate containing CFPAC-1 cells (Test 1) after testing compounds at different concentrations based on the IC50 values of each compound. CFPAC-1 is a cell line established from cystic fibrosis and pancreatic ductal adenocarcinoma.

TFK-1 cells = assay: soft agar colony formation assay, TFK-1 cells; conditions: for Colony count: duplicate wells
Method: as §1, §2, §3, §4, §5, §6, §7, §8, §9, §10, §11, §12
FIG. 10 illustrates a dose-response assay plate containing TFK-1 cells (Test 1) after testing compounds at different concentrations based on the IC50 values of each compound. TFK-1 is a cell line established from cholangiocarcinoma (bile duct adenocarcinoma).

- IC50 (EGI-1 cells; Homo sapiens, EGI-1 cells, pre-determined by dose-response assay): 8.65 µM
- IC50 (MCAS cells; MCAS cells, pre-determined by dose-response assay): 3.98 µM
- IC50 (CFPAC-1 cells; Homo sapiens, CFPAC-1 cells, pre-determined by dose-response assay): 6.25 µM
- IC50 (TFK-1 cells; TFK-1 cells, pre-determined by dose-response assay): 18 µM
Structure (SMILES): O=C(c1cc(Cc2n[nH]c(=O)c3ccccc23)ccc1F)N1CCN(C(=O)C2CC2)CC1 [Olaparib, reference compound]
- Colony count (EGI-1 cells; EGI-1, Test 1, 0.25x IC50: dose Olaparib 2.16362, Ex 1 0.00687, combination both 1:1): 1658 and 1605
- Colony count (EGI-1 cells; EGI-1, Test 1, 0.5x IC50: dose Olaparib 4.32725, Ex 1 0.01375, combination both 1:1): 1362 and 1300
- Colony count (EGI-1 cells; EGI-1, Test 1, 1x IC50: dose Olaparib 8.6545, Ex 1 0.0275, combination both 1:1): 935 and 908
- Colony count (EGI-1 cells; EGI-1, Test 1, 2x IC50: dose Olaparib 17.309, Ex 1 0.055, combination both 1:1): 454 and 489
- Colony count (EGI-1 cells; EGI-1, Test 1, 4x IC50: dose Olaparib 34.618, Ex 1 0.11, combination both 1:1): 209 and 197
- Colony count (EGI-1 cells; EGI-1, Test 2, 0.25x IC50: dose Olaparib 2.16362, Ex 1 0.00687, combination both 1:1): 1591 and 1717
- Colony count (EGI-1 cells; EGI-1, Test 2, 0.5x IC50: dose Olaparib 4.32725, Ex 1 0.01375, combination both 1:1): 1403 and 1442
- Colony count (EGI-1 cells; EGI-1, Test 2, 1x IC50: dose Olaparib 8.6545, Ex 1 0.0275, combination both 1:1): 856 and 1052
- Colony count (EGI-1 cells; EGI-1, Test 2, 2x IC50: dose Olaparib 17.309, Ex 1 0.055, combination both 1:1): 445 and 482
- Colony count (EGI-1 cells; EGI-1, Test 2, 4x IC50: dose Olaparib 34.618, Ex 1 0.11, combination both 1:1): 144 and 198
- Colony count (MCAS cells; Test 1, 0.25x IC50: dose Olaparib 0.99475, Ex 1 0.07175, combination both 1:1): 429 and 425
- Colony count (MCAS cells; Test 1, 0.5x IC50: dose Olaparib 1.9895, Ex 1 0.1435, combination both 1:1): 363 and 402
- Colony count (MCAS cells; Test 1, 1x IC50: dose Olaparib 3.979, Ex 1 0.287, combination both 1:1): 273 and 227
- Colony count (MCAS cells; Test 1, 2x IC50: dose Olaparib 7.958, Ex 1 0.574, combination both 1:1): 188 and 141
- Colony count (MCAS cells; Test 1, 4x IC50: dose Olaparib 15.918, Ex 1 1.148, combination both 1:1): 112 and 97
- Colony count (MCAS cells; Test 2, 0.25x IC50: dose Olaparib 0.99475, Ex 1 0.07175, combination both 1:1): 951 and 929
- Colony count (MCAS cells; Test 2, 0.5x IC50: dose Olaparib 1.9895, Ex 1 0.1435, combination both 1:1): 741 and 668
- Colony count (MCAS cells; Test 2, 1x IC50: dose Olaparib 3.979, Ex 1 0.287, combination both 1:1): 393 and 359
- Colony count (MCAS cells; Test 2, 2x IC50: dose Olaparib 7.958, Ex 1 0.574, combination both 1:1): 155
- Colony count (MCAS cells; Test 2, 4x IC50: dose Olaparib 15.916, Ex 1 1.148, combination both 1:1): 85 and 82
- Colony count (CFPAC-1 cells; CFPAC-1, Test 1, 0.25x IC50: dose Olaparib 1.5625, Ex 1 0.00675, combination both 1:1): 441 and 429
- Colony count (CFPAC-1 cells; CFPAC-1, Test 1, 0.5x IC50: dose Olaparib 3.125, Ex 1 0.0135, combination both 1:1): 314 and 309
- Colony count (CFPAC-1 cells; CFPAC-1, Test 1, 1x IC50: dose Olaparib 6.25, Ex 1 0.027, combination both 1:1): 259 and 289
- Colony count (CFPAC-1 cells; CFPAC-1, Test 1, 2x IC50: dose Olaparib 12.5, Ex 1 0.054, combination both 1:1): 194 and 196
- Colony count (CFPAC-1 cells; CFPAC-1, Test 1, 4x IC50: dose Olaparib 25, Ex 1 0.108, combination both 1:1): 80 and 97
- Colony count (CFPAC-1 cells; CFPAC-1, Test 2, 0.25x IC50: dose Olaparib 1.5625, Ex 1 0.00675, combination both 1:1): 586 and 545
- Colony count (CFPAC-1 cells; CFPAC-1, Test 2, 0.5x IC50: dose Olaparib 3.125, Ex 1 0.0135, combination both 1:1): 439 and 442
- Colony count (CFPAC-1 cells; CFPAC-1, Test 2, 1x IC50: dose Olaparib 6.25, Ex 1 0.027, combination both 1:1): 328 and 371
- Colony count (CFPAC-1 cells; CFPAC-1, Test 2, 2x IC50: dose Olaparib 12.5, Ex 1 0.054, combination both 1:1): 254 and 255
- Colony count (CFPAC-1 cells; CFPAC-1, Test 2, 4x IC50: dose Olaparib 25, Ex 1 0.108, combination both 1:1): 116 and 111
- Colony count (TFK-1 cells; TFK-1, Test 1, 0.25x IC50: dose Olaparib 4.5, Ex 1 3, combination both 1:1): 759 and 668
- Colony count (TFK-1 cells; TFK-1, Test 1, 0.5x IC50: dose Olaparib 9, Ex 1 6, combination both 1:1): 674 and 531
- Colony count (TFK-1 cells; TFK-1, Test 1, 1x IC50: dose Olaparib 18, combination both 1:1): 381 and 437
- Colony count (TFK-1 cells; TFK-1, Test 1, 2x IC50: dose Olaparib 36, Ex 1 24, combination both 1:1): 270 and 204
- Colony count (TFK-1 cells; TFK-1, Test 1, 4x IC50: dose Olaparib 72, Ex 1 48, combination both 1:1): 96 and 75
- Colony count (TFK-1 cells; TFK-1, Test 2, 0.25x IC50: dose Olaparib 4.5, Ex 1 3, combination both 1:1): 737 and 676
- Colony count (TFK-1 cells; TFK-1, Test 2, 0.5x IC50: dose Olaparib 9, Ex 1 6, combination both 1:1): 698 and 621
- Colony count (TFK-1 cells; TFK-1, Test 2, 1x IC50: dose Olaparib 18, combination both 1:1): 447 and 437
- Colony count (TFK-1 cells; TFK-1, Test 2, 2x IC50: dose Olaparib 36, Ex 1 24, combination both 1:1): 267 and 213
- Colony count (TFK-1 cells; TFK-1, Test 2, 4x IC50: dose Olaparib 72, Ex 1 48, combination both 1:1): 148 and 75
